Data: patent US20050267156A1, “Broadspectrum 2-amino-benzothiazole sulfonamide hiv protease inhibitors” (Tibotec Pharmaceuticals Ltd., priority 2002, published 2005)
Structures can show the parent of a compound that is named as a salt. Where two headings read alike, the source gives them in different places.

How the values were obtained:
[1] = Toxicity on mock-infected cells (MTT); format: cell-based; conditions: human
Protocol: (§1) HIV- or mock-infected MT4 cells were incubated for five days in the presence of various concentrations of the inhibitor. At the end of the incubation period, the replicating virus in the control cultures has killed all HIV-infected cells in the absence of any inhibitor. Cell viability is measured by measuring the concentration of MTT, a yellow, water soluble tetrazolium dye that is converted to a purple, water insoluble formazan in the mitochondria of living cells only. Upon solubilization of the resulting formazan crystals with isopropanol, the absorbance of the solution is monitored at 540 nm. The values correlate directly to the number of living cells remaining in the culture at the completion of the five-day incubation. The inhibitory activity of the compound was monitored on the virus-infected cells and was expressed as EC50 and EC90. These values represent the amount of the compound required to protect 50% and 90%, respectively, of the cells from the cytopathogenic effect of the virus. […] The selectivity index (SI) (ratio CC50/EC50) is an indication of the selectivity of the anti-HIV activity of the inhibitor. Wherever results are reported as e.g. pEC50 or pCC50 values, the result is expressed as the negative logarithm of the result expressed as EC50 or CC50 respectively.

[2] = tested on: mutant HIV strain C; assay: microbe, parasite or virus in culture; format: cell-based; conditions: for fold resistance Strain C: FR=EC50 (mutant strain)/EC50 (HIV-1 strain LAI); for EC50: Human immunodeficiency virus 1, MT4, read-out: pEC50 Strain C, mutant HIV strain C, MT4 cells (converted)
Protocol: as §1, with “At the end of the incubation period, the replicating virus in the control cultures has killed all HIV-infected cells in the absence of any inhibitor.” left out

[3] = tested on: mutant HIV strain A; assay: microbe, parasite or virus in culture; format: cell-based; conditions: for fold resistance Strain A: FR=EC50 (mutant strain)/EC50 (HIV-1 strain LAI); for EC50: Human immunodeficiency virus 1, MT4, read-out: pEC50 Strain A, mutant HIV strain A, MT4 cells (converted)
Protocol: as §1, with “At the end of the incubation period, the replicating virus in the control cultures has killed all HIV-infected cells in the absence of any inhibitor.” left out

[4] = tested on: mutant HIV strain F; assay: microbe, parasite or virus in culture; format: cell-based; conditions: for fold resistance Strain F: FR=EC50 (mutant strain)/EC50 (HIV-1 strain LAI); for EC50: Human immunodeficiency virus 1, MT4, read-out: pEC50 Strain F, mutant HIV strain F, MT4 cells (converted)
Protocol: as §1, with “At the end of the incubation period, the replicating virus in the control cultures has killed all HIV-infected cells in the absence of any inhibitor.” left out

[5] = tested on: mutant HIV strain D; assay: microbe, parasite or virus in culture; format: cell-based; conditions: for fold resistance Strain D: FR=EC50 (mutant strain)/EC50 (HIV-1 strain LAI); for EC50: Human immunodeficiency virus 1, MT4, read-out: pEC50 Strain D, mutant HIV strain D, MT4 cells (converted)
Protocol: as §1, with “At the end of the incubation period, the replicating virus in the control cultures has killed all HIV-infected cells in the absence of any inhibitor.” left out

[6] = tested on: mutant HIV strain B; assay: microbe, parasite or virus in culture; format: cell-based; conditions: for fold resistance Strain B: FR=EC50 (mutant strain)/EC50 (HIV-1 strain LAI); for EC50: Human immunodeficiency virus 1, MT4, read-out: pEC50 Strain B, mutant HIV strain B, MT4 cells (converted)
Protocol: as §1, with “At the end of the incubation period, the replicating virus in the control cultures has killed all HIV-infected cells in the absence of any inhibitor.” left out

[7] = tested on: mutant HIV strain E; assay: microbe, parasite or virus in culture; format: cell-based; conditions: for fold resistance Strain E: FR=EC50 (mutant strain)/EC50 (HIV-1 strain LAI); for EC50: Human immunodeficiency virus 1, MT4, read-out: pEC50 Strain E, mutant HIV strain E, MT4 cells (converted)
Protocol: as §1, with “At the end of the incubation period, the replicating virus in the control cultures has killed all HIV-infected cells in the absence of any inhibitor.” left out

[8] = tested on: HIV-1 strain LAI; assay: Cellular anti-HIV assay (MT4/MTT), wild type; format: cell-based; conditions: MT4 cells, read-out: WT (pEC50) (converted)
Protocol: as §1, with “The compounds of the present invention were examined for anti-viral activity in a cellular assay. […] The cellular assay was performed according to the following procedure. HIV-” for “HIV-”, “At the end of the incubation period, the replicating virus in the control cultures has killed all HIV-infected cells in the absence of any inhibitor.” left out

[9] = Pharmacokinetics in rats; format: in vivo, Whistar rats; conditions: Whistar, rat, blood, 10 mpk, read-out: Cmax
Protocol: The pharmacokinetic properties of some compounds of formula (I) were tested on rats and dogs. The compounds were evaluated in Whistar rats, source Iffa Credo, weighing approximately 350 g. Before dosing the animals were fasted overnight (approximately 12 h fasting period). The compounds were dissolved in DMSO or PEG 400. The results represented in the table concern the results from the oral or intra-peritoneal dosing of the compounds. Blood was sampled at 30 min, 1 h, 2 h, 3 h, no pre-dose sample was taken. The amount of the compound in the biological sample was determined using LC-MS. In the table below “or” means oral dosing, “ip” means intraperitoneal dosing, “mpk” means mg per kilogram.

[10] = Human immunodeficiency virus 1, wild type HIV-1 strain LAI

Cc1cccc(C)c1OCC(=O)N[C@@H](Cc1ccccc1)[C@H](O)CN(CC(C)C)S(=O)(=O)c1ccc2nc(N)sc2c1 [Compound 8, N-{(1S,2R)-3-[(2-amino-benzothiazole-6-sulfonyl)-isobutyl-amino]-1-benzyl-2-hydroxypropyl}-2-(2,6-dimethyl-phenoxy)-acetamide]
CC50 at 5 days [1]: > 10000 nM
fold resistance Strain C [2]: 3.9
EC50 [2]: 25.7 nM
fold resistance Strain A [3]: 4.8
EC50 [3]: 31.6 nM
fold resistance Strain F [4]: 21.4
EC50 [4]: 141 nM
fold resistance Strain D [5]: 5.1
EC50 [5]: 33.9 nM
fold resistance Strain B [6]: 2.0
EC50 [6]: 13.5 nM
fold resistance Strain E [7]: 4.2
EC50 [7]: 27.5 nM
EC50 [8, 10]: 6.61 nM

Cc1c(N)cccc1C(=O)N[C@@H](Cc1ccccc1)[C@H](O)CN(CC(C)C)S(=O)(=O)c1ccc2nc(N)sc2c1 [Compound 10, 3-amino-N-{(1S,2R)-3-[(2-amino-benzothiazole-6-sulfonyl)-isobutyl-amino]-1-benzyl-2-hydroxypropyl}-2-methyl-benzamide]
CC50 at 5 days [1]: 72400 nM
fold resistance Strain C [2]: 1.7
EC50 [2]: 15.8 nM
fold resistance Strain A [3]: 9.3
EC50 [3]: 85.1 nM
fold resistance Strain F [4]: 9.5
EC50 [4]: 87.1 nM
fold resistance Strain D [5]: 2.5
EC50 [5]: 22.9 nM
fold resistance Strain B [6]: 1.0
EC50 [6]: 9.33 nM
fold resistance Strain E [7]: 1.4
EC50 [7]: 13.2 nM
EC50 [8, 10]: 9.12 nM

Cc1c(O)cccc1C(=O)N[C@@H](Cc1ccccc1)[C@H](O)CN(CC(C)C)S(=O)(=O)c1ccc2nc(N)sc2c1 [Compound 11, N-{(1S,2R)-3-[(2-amino-benzothiazole-6-sulfonyl)-isobutyl-amino]-1-benzyl-2-hydroxypropyl}-3-hydroxy-2-methyl-benzamide]
CC50 at 5 days [1]: 57500 nM
fold resistance Strain C [2]: 0.5
EC50 [2]: 7.59 nM
fold resistance Strain A [3]: 7.8
EC50 [3]: 112 nM
fold resistance Strain F [4]: 7.1
EC50 [4]: 102 nM
fold resistance Strain D [5]: 0.6
EC50 [5]: 8.32 nM
fold resistance Strain B [6]: 0.5
EC50 [6]: 7.24 nM
fold resistance Strain E [7]: 0.5
EC50 [7]: 7.24 nM
EC50 [8, 10]: 14.5 nM

Cc1c(F)cccc1C(=O)N[C@@H](Cc1ccccc1)[C@H](O)CN(CC(C)C)S(=O)(=O)c1ccc2nc(N)sc2c1 [Compound 16, N-{(1S,2R)-3-[(2-amino-benzothiazole-6-sulfonyl)-isobutyl-amino]-1-benzyl-2-hydroxypropyl}-3-fluoro-2-methyl-benzamide]
CC50 at 5 days [1]: 11200 nM
EC50 [2]: > 100000 nM
EC50 [3]: > 100000 nM
EC50 [4]: > 100000 nM
EC50 [5]: > 100000 nM
EC50 [6]: > 100000 nM
EC50 [7]: > 100000 nM
EC50 [8, 10]: 1410 nM

Cc1cc(CN)cc(C)c1OCC(=O)N[C@@H](Cc1ccccc1)[C@H](O)CN(CC(C)C)S(=O)(=O)c1ccc2nc(N)sc2c1 [Compound 17, N-{(1S,2R)-3-[(2-amino-benzothiazole-6-sulfonyl)-isobutyl-amino]-1-benzyl-2-hydroxypropyl}-2-(4-aminomethyl-2,6-dimethyl-phenoxy)-acetamide]
CC50 at 5 days [1]: 63100 nM
fold resistance Strain C [2]: 1.7
EC50 [2]: 12.3 nM
fold resistance Strain A [3]: 4.5
EC50 [3]: 31.6 nM
fold resistance Strain F [4]: 22.4
EC50 [4]: 158 nM
fold resistance Strain D [5]: 3.3
EC50 [5]: 23.4 nM
fold resistance Strain B [6]: 0.9
EC50 [6]: 6.61 nM
fold resistance Strain E [7]: 1.1
EC50 [7]: 7.59 nM
EC50 [8, 10]: 7.08 nM

CNc1nc2ccc(S(=O)(=O)N(CC(C)C)C[C@@H](O)[C@H](Cc3ccccc3)NC(=O)c3cccc(N)c3C)cc2s1 [Compound 20, 3-amino-N-{(1S,2R)-1-benzyl-2-hydroxy-3-[isobutyl-(2-methylamino-benzothiazole-6-sulfonyl)-amino]-propyl}-2-methyl-benzamide trifluoroacetate]
CC50 at 5 days [1]: > 100000 nM
EC50 [2]: 39.8 nM
EC50 [3]: 316 nM
EC50 [4]: 759 nM
EC50 [5]: 41.7 nM
EC50 [6]: 24.5 nM
EC50 [7]: 25.7 nM
EC50 ([8]; Human immunodeficiency virus 1, MT4, wild type HIV-1 strain LAI): 4.79 nM

CNc1nc2ccc(S(=O)(=O)N(CC(C)C)C[C@@H](O)[C@H](Cc3ccccc3)NC(=O)c3ccc(Br)cc3C)cc2s1 [Compound 27, N-{(1S,2R)-1-benzyl-2-hydroxy-3-[isobutyl-(2-methylamino-benzothiazole-6-sulfonyl)-amino]-propyl}-4-bromo-2-methyl-benzamide]
CC50 at 5 days [1]: > 100000 nM
fold resistance Strain C [2]: 263.0
EC50 [2]: 5010 nM
fold resistance Strain A [3]: 8.3
EC50 [3]: 158 nM
fold resistance Strain F [4]: 33.9
EC50 [4]: 646 nM
fold resistance Strain D [5]: 4.5
EC50 [5]: 85.1 nM
fold resistance Strain B [6]: 1.1
EC50 [6]: 20.4 nM
fold resistance Strain E [7]: 1.6
EC50 [7]: 30.9 nM
EC50 [8, 10]: 19.1 nM

CNc1nc2ccc(S(=O)(=O)N(CC(C)C)C[C@@H](O)[C@H](Cc3ccccc3)NC(=O)OCc3cnco3)cc2s1 [Compound 28, {(1S,2R)-1-benzyl-2-hydroxy-3-[isobutyl-(2-methylamino-benzothiazole-6-sulfonyl)-amino]-propyl}-carbamic acid oxazol-5-ylmethyl ester]
Cmax ([9]; ip, ip, DMSO, results normalized to 10 mpk): 1000 ng/mL
Cmax ([9]; po, or, DMSO, results normalized to 10 mpk): 540 ng/mL
Cmax ([9]; po, or, PEG400, results normalized to 10 mpk): 430 ng/mL
fold resistance Strain C [2]: 2.5
EC50 [2]: 6.17 nM
fold resistance Strain A [3]: 7.8
EC50 [3]: 19.5 nM
fold resistance Strain F [4]: 30.9
EC50 [4]: 77.6 nM
fold resistance Strain D [5]: 14.8
EC50 [5]: 37.2 nM
fold resistance Strain B [6]: 2.2
EC50 [6]: 5.62 nM
fold resistance Strain E [7]: 2.8
EC50 [7]: 7.08 nM
EC50 [8, 10]: 2.51 nM
